Test results taken from ChEMBL document CHEMBL1201862, “PubChem BioAssay data set” (2004).
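Where inhibition never reached the appropriate level, the endpoint shown equals the highest concentration tested. Otherwise, values were interpolated linearly from a five-concentration, 48-hour dose response in 96-well plates. Here, GI50 denotes the concentration required for 50% inhibition of growth.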 Activity calls are given as the source filed them. Cut-off read from the data, not from the text of the source: active = GI50 up to about 1.1 µM and inactive = higher.

Columns and labels:
Assay in all cases: inhibition of tumour cell growth, NCI panel, 48 h
CAKI-1 = tested on: CAKI-1
OVCAR-4 = tested on: OVCAR-4
SNB-19 = tested on: SNB-19
OVCAR-3 = tested on: OVCAR-3
NCI-H226 = tested on: NCI-H226
COLO 205 = tested on: COLO 205
SF-295 = tested on: SF-295
SNB-75 = tested on: SNB-75
HOP-92 = tested on: HOP-92
HCC 2998 = tested on: HCC 2998
DU-145 = tested on: DU-145
SK-MEL-28 = tested on: SK-MEL-28
HOP-62 = tested on: HOP-62
SF-268 = tested on: SF-268
MDA-MB-435 = tested on: MDA-MB-435
OVCAR-5 = tested on: OVCAR-5
HCT-15 = tested on: HCT-15
SF-539 = tested on: SF-539
UACC-257 = tested on: UACC-257
ACHN = tested on: ACHN

SMILES	GI50 (CAKI-1)	GI50 (OVCAR-4)	GI50 (SNB-19)	GI50 (OVCAR-3)	GI50 (NCI-H226)	GI50 (COLO 205)	GI50 (SF-295)	GI50 (SNB-75)	GI50 (HOP-92)	GI50 (HCC 2998)	GI50 (DU-145)	GI50 (SK-MEL-28)	GI50 (HOP-62)	GI50 (SF-268)	GI50 (MDA-MB-435)	GI50 (OVCAR-5)	GI50 (HCT-15) [µM]	GI50 (SF-539)	GI50 (UACC-257)	GI50 (ACHN)
COc1ccc2c(c1)C(=O)OCCC2	> 100 µM (inactive)	> 100 µM (inactive)	> 100 µM (inactive)	> 100 µM (inactive)	> 100 µM (inactive)	> 100 µM (inactive)	> 100 µM (inactive)	54 µM (inactive)	> 100 µM (inactive)	> 100 µM (inactive)	> 100 µM (inactive)	> 100 µM (inactive)	> 100 µM (inactive)	> 100 µM (inactive)	> 100 µM (inactive)	> 100 µM (inactive)	> 100	> 100 µM (inactive)	> 100 µM (inactive)	> 100 µM (inactive)
C[C@]12CC[C@H](O)CC1=CC[C@@H]1[C@@H]2CC[C@]2(C)C(=O)[C@@H](N3CCOCC3)C[C@@H]12	3.26 µM (inactive)	> 100 µM (inactive)	> 100 µM (inactive)	> 100 µM (inactive)	> 100 µM (inactive)	> 100 µM (inactive)	> 100 µM (inactive)	30.6 µM (inactive)	50.5 µM (inactive)	> 100 µM (inactive)	> 100 µM (inactive)	> 100 µM (inactive)	> 100 µM (inactive)	48.4 µM (inactive)	> 100 µM (inactive)	> 100 µM (inactive)	> 100	> 100 µM (inactive)	> 100 µM (inactive)	> 100 µM (inactive)
C[N+]12CCCCC1C(CN1C(=O)c3ccccc3C1=O)CCC2 (stereo not given)	> 100 µM (inactive)	> 100 µM (inactive)	> 100 µM (inactive)	> 100 µM (inactive)	> 100 µM (inactive)	> 100 µM (inactive)	> 100 µM (inactive)	> 100 µM (inactive)	> 100 µM (inactive)	> 100 µM (inactive)	> 100 µM (inactive)	> 100 µM (inactive)	> 100 µM (inactive)	> 100 µM (inactive)	> 100 µM (inactive)	> 100 µM (inactive)	> 100	> 100 µM (inactive)	> 100 µM (inactive)	> 100 µM (inactive)
COC(=O)C1=C(C)N2[C@H](C(=O)O)CS[C@@]2(C)[C@H](C(=O)OC)[C@H]1c1cccc([N+](=O)[O-])c1	> 100 µM (inactive)	> 100 µM (inactive)	> 100 µM (inactive)	> 100 µM (inactive)	> 100 µM (inactive)	> 100 µM (inactive)	> 100 µM (inactive)	> 100 µM (inactive)	54.5 µM (inactive)	> 100 µM (inactive)	> 100 µM (inactive)	> 100 µM (inactive)	> 100 µM (inactive)	> 100 µM (inactive)	> 100 µM (inactive)	> 100 µM (inactive)	> 100	> 100 µM (inactive)	> 100 µM (inactive)	> 100 µM (inactive)
N/N=C1N=C(Cl)/C(=C/c2ccco2)N\1	48.6 µM (inactive)	31.6 µM (inactive)	50.5 µM (inactive)	28.7 µM (inactive)	> 100 µM (inactive)	43.1 µM (inactive)	38.1 µM (inactive)	32.7 µM (inactive)	47.2 µM (inactive)	27.6 µM (inactive)	50.4 µM (inactive)	60.8 µM (inactive)	59.2 µM (inactive)	34.3 µM (inactive)	40.6 µM (inactive)	> 100 µM (inactive)	31.5	22.4 µM (inactive)	52.8 µM (inactive)	50.4 µM (inactive)
CCOc1cc2c(cc1O)C=C[C@@H]1[C@@H]2CC[C@]2(C)[C@@H](O)CC[C@@H]12	5.28 µM (inactive)	24.9 µM (inactive)	3.52 µM (inactive)	1.87 µM (inactive)	4.06 µM (inactive)	21.1 µM (inactive)	1.91 µM (inactive)	3.3 µM (inactive)	29.9 µM (inactive)	6.34 µM (inactive)	1.53 µM (inactive)	22.3 µM (inactive)	3.85 µM (inactive)	9.06 µM (inactive)	0.334 µM (active)	27.6 µM (inactive)	0.562	2.04 µM (inactive)	12.5 µM (inactive)	11.6 µM (inactive)
